Test results as given in patent US20070093520A1, “Method of treatment of diarrhea-predominant irritable bowel syndrome in a subject” (priority 2005, published 2007).

System: diarrhea-predominant IBS subjects
Type: in vivo, human
Procedure: The study was performed in approximately 150 study centers. Approximately 1600 eligible subjects were to be given cilansetron 2 mg TID. At Visit 1, pre-treatment assessments were conducted. […] Subjects were to return to the study site one month later for Visit 3 (Day 31) for their first interim assessment. […] All subjects who discontinued from the study were to have the same post-study assessments required at Visit 7 performed at their early termination visit. […]
Stool specimens were analyzed at every visit for occult blood. An independent GERB had been established to provide advice on GI AEs during the course of the study.
Adverse events were assessed at Baseline, at each clinic visit, and at the end of the study (Month 12 or the early termination visit). All AEs, which occurred during the study were followed up in accordance with good medical practice until resolved or judged no longer clinically significant, or if a condition was chronic, until fully characterized. Adverse events could occur in the specified follow-up period and, regardless of the interval since the last administration of the study medication, were treated in the same manner as an AE which occurred during the treatment with study medication. Each AE was evaluated for duration, severity, seriousness, and causal relationship to the investigational drug. The action taken and the outcome were also recorded.
Specifically, subjects who were lost to follow-up and had no post-Baseline contact with the site were excluded from the Safety population. The subjects who discontinued from the study due to lost to follow-up were identified based on the information collected on the study termination CRF page.
After the pretreatment assessment at Visit 1 (Days […] to −3), subjects were to return to the study site for a Baseline assessment and start the treatment at Visit 2 (Day 1).
For the by time-interval analyses of disposition, prevalence of AEs, and of markedly abnormal and predefined changes in laboratory values, vital signs, and ECGs, the following interval windows were used:
Adverse events that were already present prior to the first dose of cilansetron study medication but increased in severity afterwards were considered as treatment-emergent.
The 5% cutoff point was based on the incidence within higher level terms.
Subjects were counted at most once for each primary system organ class and preferred term. Serious AEs that resolved prior to receiving study medication or occurred more than 30 days after the last dose of study medication were not included in the incidence tables. A listing of all SAEs is presented; SAEs with onset prior to receiving study medication or more than 30 days after discontinuation of study medication were flagged. The listing presents lower level term and preferred term of the SAE, severity, action taken, outcome, and relationship of the SAE, start and stop date of the SAE, study day of onset of the SAE, age, race, and sex.

[1] = 2 mg, Safety Population, 3008, system organ class
[2] = 2 mg, Safety Population, 3008, under Blood and Lymphatic System Disorders
[3] = 2 mg, Safety Population, 3008, under Congenital, Familial and Genetic Disorders
[4] = 2 mg, Safety Population, 3008, under Ear and Labyrinth Disorders
[5] = 2 mg, Safety Population, 3008, under Endocrine Disorders
[6] = 2 mg, Safety Population, 3008, under Eye Disorders
[7] = 2 mg, Safety Population, 3008, under Hepatobiliary Disorders
[8] = 2 mg, Safety Population, 3008, under Immune System Disorders
[9] = 2 mg, Safety Population, 3008, under Neoplasms Benign, Malignant and Unspecified

Structure (SMILES): Cc1nccn1C[C@H]1CCc2c(c3cccc4c3n2CCC4)C1=O [cilansetron, (R)-(−)-4,5,6,8,9,10-hexahydro-10-[(2-methyl-1H-imidazol-1-yl)methyl]-11H-pyrido-[3,2,1-jk]-carbazol-11-one]
- TEAE incidence: Influenza Viral Infections: 51 (4%) n (%)
- TEAE incidence: Scrotal Disorders NEC* (2 mg, Safety Population, 3008): 1 (<1%) n (%)
- TEAE incidence: Scrotal Swelling* (2 mg, Safety Population, 3008): 1 (<1%) n (%)
- TEAE incidence: Vaginal Haemorrhage* (2 mg, Safety Population, 3008): 1 (<1%) n (%)
- TEAE incidence: Vulvovaginal Disorders NEC* (2 mg, Safety Population, 3008): 1 (<1%) n (%)
- TEAE incidence: Blood and Lymphatic System Disorders [1]: 13 (<1%) n (%)
- TEAE incidence: Congenital, Familial and Genetic Disorders [1]: 3 (<1%) n (%)
- TEAE incidence: Ear and Labyrinth Disorders [1]: 22 (2%) n (%)
- TEAE incidence: Endocrine Disorders [1]: 7 (<1%) n (%)
- TEAE incidence: Eye Disorders [1]: 18 (1%) n (%)
- TEAE incidence: Hepatobiliary Disorders [1]: 13 (<1%) n (%)
- TEAE incidence: Immune System Disorders [1]: 23 (2%) n (%)
- TEAE incidence: Neoplasms Benign, Malignant and Unspecified (Incl Cysts and Polyps) [1]: 17 (1%) n (%)
- TEAE incidence: Pregnancy, Puerperium and Perinatal Conditions [1]: 2 (<1%) n (%)
- TEAE incidence: Social Circumstances [1]: 3 (<1%) n (%)
- TEAE incidence: Surgical and Medical Procedures [1]: 2 (<1%) n (%)
- TEAE incidence: Vascular Disorders [1]: 32 (2%) n (%)
- TEAE incidence: Anaemia Deficiencies [2]: 1 (<1%) n (%)
- TEAE incidence: Anaemia NOS [2]: 5 (<1%) n (%)
- TEAE incidence: Anaemia Vitamin B12 Deficiency [2]: 1 (<1%) n (%)
- TEAE incidence: Anaemias NEC [2]: 7 (<1%) n (%)
- TEAE incidence: Anisocytosis [2]: 1 (<1%) n (%)
- TEAE incidence: Eosinophilia [2]: 2 (<1%) n (%)
- TEAE incidence: Hypochromic Anaemia [2]: 1 (<1%) n (%)
- TEAE incidence: Leukocytoses NEC [2]: 4 (<1%) n (%)
- TEAE incidence: Leukocytosis [2]: 2 (<1%) n (%)
- TEAE incidence: Leukopenia NOS [2]: 2 (<1%) n (%)
- TEAE incidence: Leukopenias NEC [2]: 2 (<1%) n (%)
- TEAE incidence: Neutropenia [2]: 1 (<1%) n (%)
- TEAE incidence: Neutropenias [2]: 1 (<1%) n (%)
- TEAE incidence: Neutrophilia [2]: 2 (<1%) n (%)
- TEAE incidence: Normochromic Normocytic Anaemia [2]: 1 (<1%) n (%)
- TEAE incidence: Poikilocytosis [2]: 1 (<1%) n (%)
- TEAE incidence: Red Blood Cell Abnormal Findings NEC [2]: 1 (<1%) n (%)
- TEAE incidence: Secondary Thrombocythaemias [2]: 1 (<1%) n (%)
- TEAE incidence: Thrombocythaemia [2]: 1 (<1%) n (%)
- TEAE incidence: Congenital Claw Toe [3]: 1 (<1%) n (%)
- TEAE incidence: Musculoskeletal and Connective Tissue Disorders of Limbs Congenital [3]: 1 (<1%) n (%)
- TEAE incidence: Pigmented Naevus [3]: 2 (<1%) n (%)
- TEAE incidence: Skin and Subcutaneous Tissue Disorders Congenital NEC [3]: 2 (<1%) n (%)
- TEAE incidence: Ear Disorders NEC [4]: 3 (<1%) n (%)
- TEAE incidence: Ear Pain [4]: 3 (<1%) n (%)
- TEAE incidence: Hyperacusia [4]: 1 (<1%) n (%)
- TEAE incidence: Hyperacusis [4]: 1 (<1%) n (%)
- TEAE incidence: Inner Ear Disorder NOS [4]: 1 (<1%) n (%)
- TEAE incidence: Inner Ear Disorders NEC [4]: 1 (<1%) n (%)
- TEAE incidence: Inner Ear Signs and Symptoms [4]: 18 (1%) n (%)
- TEAE incidence: Tinnitus [4]: 8 (<1%) n (%)
- TEAE incidence: Vertigo [4]: 10 (<1%) n (%)
- TEAE incidence: Vertigo Positional [4]: 1 (<1%) n (%)
- TEAE incidence: Acquired Hypothyroidism [5]: 3 (<1%) n (%)
- TEAE incidence: Acute and Chronic Thyroiditis [5]: 1 (<1%) n (%)
- TEAE incidence: Goitre [5]: 2 (<1%) n (%)
- TEAE incidence: Thyroid Disorders NEC [5]: 2 (<1%) n (%)
- TEAE incidence: Thyroid Hyperfunction Disorders [5]: 2 (<1%) n (%)
- TEAE incidence: Thyroid Hypofunction Disorders [5]: 3 (<1%) n (%)
- TEAE incidence: Thyroid Neoplasms [5]: 1 (<1%) n (%)
- TEAE incidence: Thyroid Nodule [5]: 1 (<1%) n (%)
- TEAE incidence: Thyroiditis NOS [5]: 1 (<1%) n (%)
- TEAE incidence: Thyrotoxicosis [5]: 2 (<1%) n (%)
- TEAE incidence: Amaurosis Fugax [6]: 1 (<1%) n (%)
- TEAE incidence: Blindness (Excl Colour Blindness) [6]: 1 (<1%) n (%)
- TEAE incidence: Cataract Unilateral [6]: 1 (<1%) n (%)
- TEAE incidence: Cataracts (Excl Congenital) [6]: 1 (<1%) n (%)
- TEAE incidence: Conjunctival Haemorrhage [6]: 1 (<1%) n (%)
- TEAE incidence: Conjunctival and Corneal Bleeding and Vascular Disorders [6]: 1 (<1%) n (%)
- TEAE incidence: Conjunctivitis [6]: 1 (<1%) n (%)
- TEAE incidence: Dry Eye NOS [6]: 1 (<1%) n (%)
- TEAE incidence: Eye Irritation [6]: 1 (<1%) n (%)
- TEAE incidence: Eye Pain [6]: 2 (<1%) n (%)
- TEAE incidence: Eyelid Oedema [6]: 2 (<1%) n (%)
- TEAE incidence: Glaucoma NOS [6]: 1 (<1%) n (%)
- TEAE incidence: Glaucomas (Excl Congenital) [6]: 1 (<1%) n (%)
- TEAE incidence: Lacrimal Disorders [6]: 1 (<1%) n (%)
- TEAE incidence: Ocular Disorders NEC [6]: 2 (<1%) n (%)
- TEAE incidence: Ocular Sensation Disorders [6]: 1 (<1%) n (%)
- TEAE incidence: Partial Vision Loss [6]: 2 (<1%) n (%)
- TEAE incidence: Photophobia [6]: 1 (<1%) n (%)
- TEAE incidence: Retinal Bleeding and Vascular Disorders (Excl Retinopathy) [6]: 1 (<1%) n (%)
- TEAE incidence: Retinal Detachment [6]: 1 (<1%) n (%)
- TEAE incidence: Retinal Structural Change, Deposit and Degeneration [6]: 1 (<1%) n (%)
- TEAE incidence: Retinal Vascular Disorder NOS [6]: 1 (<1%) n (%)
- TEAE incidence: Retinitis NOS [6]: 1 (<1%) n (%)
- TEAE incidence: Vision Abnormal NOS Exacerbated [6]: 1 (<1%) n (%)
- TEAE incidence: Vision Blurred [6]: 1 (<1%) n (%)
- TEAE incidence: Visual Disorders NEC [6]: 3 (<1%) n (%)
- TEAE incidence: Visual Disturbance NOS [6]: 3 (<1%) n (%)
- TEAE incidence: Biliary Dyskinesia [7]: 1 (<1%) n (%)
- TEAE incidence: Cholecystitis NOS [7]: 2 (<1%) n (%)
- TEAE incidence: Cholecystitis and Cholelithiasis [7]: 3 (<1%) n (%)
- TEAE incidence: Cholelithiasis [7]: 1 (<1%) n (%)
- TEAE incidence: Cholestasis and Jaundice [7]: 1 (<1%) n (%)
- TEAE incidence: Gallbladder Disorders NEC [7]: 1 (<1%) n (%)
- TEAE incidence: Hepatic Cyst NOS [7]: 1 (<1%) n (%)
- TEAE incidence: Hepatic Disorder NOS [7]: 2 (<1%) n (%)
- TEAE incidence: Hepatic and Hepatobiliary Disorders NEC [7]: 2 (<1%) n (%)
- TEAE incidence: Hepatitis NOS [7]: 3 (<1%) n (%)
- TEAE incidence: Hepatobiliary Neoplasms Benign [7]: 1 (<1%) n (%)
- TEAE incidence: Hepatocellular Damage and Hepatitis NEC [7]: 5 (<1%) n (%)
- TEAE incidence: Jaundice Cholestatic [7]: 1 (<1%) n (%)
- TEAE incidence: Liver Fatty [7]: 2 (<1%) n (%)
- TEAE incidence: Allergic Conditions NEC [8]: 8 (<1%) n (%)
- TEAE incidence: Allergies to Foods, Food Additives, Drugs and Other Chemicals [8]: 3 (<1%) n (%)
- TEAE incidence: Atopic Disorders [8]: 12 (<1%) n (%)
- TEAE incidence: Drug Hypersensitivity [8]: 3 (<1%) n (%)
- TEAE incidence: Hypersensitivity NOS [8]: 7 (<1%) n (%)
- TEAE incidence: Seasonal Allergy [8]: 12 (<1%) n (%)
- TEAE incidence: Benign Ureteric Neoplasm NOS [9]: 1 (<1%) n (%)
- TEAE incidence: Bladder Neoplasm NOS [9]: 1 (<1%) n (%)
- TEAE incidence: Breast Cancer NOS* [9]: 1 (<1%) n (%)
- TEAE incidence: Breast and Nipple Neoplasms Malignant* [9]: 1 (<1%) n (%)
- TEAE incidence: Cartilage Neoplasms Benign [9]: 1 (<1%) n (%)
- TEAE incidence: Enchondromatosis [9]: 1 (<1%) n (%)
